Laboratory results taken from patent US12497393B2, “β-lactam compound, use thereof and preparation method therefor” (priority 2020, dated 2025).
Converted amounts (≈) assume the structure as drawn.

The compounds below were run on Acinetobacter baumannii (assay: Antibacterial activity MIC assay (two-fold dilution agar plating)). Conditions: Acinetobacter baumannii, ATCC19606, Acinetobacter baumannii ATCC 19606; read-out: Minimal Inhibitory Concentration (MIC).
Format: cell-based
Protocol: (§1) Antibacterial Activity-Evaluating Method (MIC Assay)
(§2) In this study, the compounds of the present invention were tested for their antibacterial activities by using two-fold dilution agar plating method and Denley Multipoint Inoculator A400 according to the guidelines of the CLSI/NCCLS standard. The tested strains were amplified by hydrolyzed casein peptone (Mueller-Hinton Agar) broth and Brain and Heart Infusion. The strains used in this study were bacterial strains that were purchased from ATCC or clinically isolated in Chinese hospitals. Aztreonam, polymyxin or levofloxacin was used as positive control. The drugs were diluted with hydrolyzed casein peptone broth to the desired concentrations including 128.0, 64.0, 32.0, 16.0, 8.0, 4.0, 2.0, 1.0, 0.5, 0.25, 0.125, 0.06 and 0.03 μg/mL, and then placed respectively into each well and mixed thoroughly. After inoculation, the tested strains were incubated for 18 hours at a constant temperature of 35° C., and their growth levels were observed. The drug concentration with no microbial growth in the well was recorded as the lowest Minimal Inhibitory Concentration (MIC).

SMILES | MIC [µg/mL]
CC1(C)[C@H](NC(=O)/C(=N\OC2(C(=O)O)CCCC2)c2csc(N)n2)C(=O)N1OS(=O)(=O)O [Compound A-3] | 32 (≈ 65.1 µM)

Same assay, conditions: Acinetobacter baumannii, Acinetobacter baumannii 16-16; read-out: Minimal Inhibitory Concentration (MIC)

SMILES | MIC [µg/mL]
CC1(C)[C@H](NC(=O)/C(=N\OC2(C(=O)O)CCCC2)c2csc(N)n2)C(=O)N1OS(=O)(=O)O [Compound A-3] | > 64

Same assay, conditions: Acinetobacter baumannii, Acinetobacter baumannii 16-33; read-out: Minimal Inhibitory Concentration (MIC)

SMILES | MIC [µg/mL]
CC1(C)[C@H](NC(=O)/C(=N\OC2(C(=O)O)CCCC2)c2csc(N)n2)C(=O)N1OS(=O)(=O)O [Compound A-3] | 32 (≈ 65.1 µM)

The compounds below were run on Citrobacter freundii in the same assay as above. Conditions: ATCC43864; Citrobacter freundii ATCC 43864; read-out: Minimal Inhibitory Concentration (MIC).
Format: cell-based
Protocol: as §1, §2

SMILES | MIC [µg/mL]
CC1(C)[C@H](NC(=O)/C(=N\OC2(C(=O)O)CCCC2)c2csc(N)n2)C(=O)N1OS(=O)(=O)O [Compound A-3] | 0.25 (≈ 0.509 µM)

The compounds below were run on Enterobacter aerogenes in the same assay as above. Conditions: Klebsiella aerogenes, ATCC13048; Enterobacter aerogenes ATCC 13048; read-out: Minimal Inhibitory Concentration (MIC).
Format: cell-based
Protocol: as §1, §2

SMILES | MIC [µg/mL]
CC1(C)[C@H](NC(=O)/C(=N\OC2(C(=O)O)CCCC2)c2csc(N)n2)C(=O)N1OS(=O)(=O)O [Compound A-3] | 0.5 (≈ 1.02 µM)

These compounds were tested on Enterobacter cloacae in the same assay as above. Conditions: ATCC43560; Enterobacter cloacae ATCC 43560; read-out: Minimal Inhibitory Concentration (MIC).
Format: cell-based
Protocol: as §1, §2

SMILES | MIC [µg/mL]
CC1(C)[C@H](NC(=O)/C(=N\OC2(C(=O)O)CCCC2)c2csc(N)n2)C(=O)N1OS(=O)(=O)O [Compound A-3] | 0.5 (≈ 1.02 µM)

Same assay, conditions: Enterobacter cloacae CDC1000654; read-out: Minimal Inhibitory Concentration (MIC)

SMILES | MIC [µg/mL]
CC1(C)[C@H](NC(=O)/C(=N\OC2(C(=O)O)CCCC2)c2csc(N)n2)C(=O)N1OS(=O)(=O)O [Compound A-3] | 4 (≈ 8.14 µM)

What follows are compounds tested on Escherichia coli in the same assay as above. Conditions: Escherichia coli, ATCC25922, Escherichia coli ATCC 25922, ESBLs(−); read-out: Minimal Inhibitory Concentration (MIC).
Format: cell-based
Protocol: as §1, §2

SMILES | MIC [µg/mL]
CC1(C)[C@H](NC(=O)/C(=N\OC2(C(=O)O)CCCC2)c2csc(N)n2)C(=O)N1OS(=O)(=O)O [Compound A-3] | 0.25 (≈ 0.509 µM)

Same assay, conditions: Escherichia coli, ATCC35218, Escherichia coli ATCC 35218, ESBLs(+); read-out: Minimal Inhibitory Concentration (MIC)

SMILES | MIC [µg/mL]
CC1(C)[C@H](NC(=O)/C(=N\OC2(C(=O)O)CCCC2)c2csc(N)n2)C(=O)N1OS(=O)(=O)O [Compound A-3] | 0.25 (≈ 0.509 µM)

Same assay, conditions: Escherichia coli, Escherichia coli 08-85, mcr-1(+); read-out: Minimal Inhibitory Concentration (MIC)

SMILES | MIC [µg/mL]
CC1(C)[C@H](NC(=O)/C(=N\OC2(C(=O)O)CCCC2)c2csc(N)n2)C(=O)N1OS(=O)(=O)O [Compound A-3] | 0.25 (≈ 0.509 µM)

Same assay, conditions: Escherichia coli, Escherichia coli 13-43, mcr-1(+); read-out: Minimal Inhibitory Concentration (MIC)

SMILES | MIC [µg/mL]
CC1(C)[C@H](NC(=O)/C(=N\OC2(C(=O)O)CCCC2)c2csc(N)n2)C(=O)N1OS(=O)(=O)O [Compound A-3] | 0.5 (≈ 1.02 µM)

Same assay, conditions: Escherichia coli, Escherichia coli 13-66, mcr-1(+); read-out: Minimal Inhibitory Concentration (MIC)

SMILES | MIC [µg/mL]
CC1(C)[C@H](NC(=O)/C(=N\OC2(C(=O)O)CCCC2)c2csc(N)n2)C(=O)N1OS(=O)(=O)O [Compound A-3] | 0.25 (≈ 0.509 µM)

Same assay, conditions: Escherichia coli, Escherichia coli 16-1, ESBLs(+); read-out: Minimal Inhibitory Concentration (MIC)

SMILES | MIC [µg/mL]
CC1(C)[C@H](NC(=O)/C(=N\OC2(C(=O)O)CCCC2)c2csc(N)n2)C(=O)N1OS(=O)(=O)O [Compound A-3] | 0.25 (≈ 0.509 µM)

Same assay, conditions: Escherichia coli, Escherichia coli 16-7, ESBLs(−); read-out: Minimal Inhibitory Concentration (MIC)

SMILES | MIC [µg/mL]
CC1(C)[C@H](NC(=O)/C(=N\OC2(C(=O)O)CCCC2)c2csc(N)n2)C(=O)N1OS(=O)(=O)O [Compound A-3] | 0.5 (≈ 1.02 µM)

Same assay, conditions: Escherichia coli, Escherichia coli 17-R28, CRE, NDM-1(+); read-out: Minimal Inhibitory Concentration (MIC)

SMILES | MIC [µg/mL]
CC1(C)[C@H](NC(=O)/C(=N\OC2(C(=O)O)CCCC2)c2csc(N)n2)C(=O)N1OS(=O)(=O)O [Compound A-3] | 8 (≈ 16.3 µM)

Same assay, conditions: Escherichia coli, Escherichia coli CDC1001728, NDM-1(+); read-out: Minimal Inhibitory Concentration (MIC)

SMILES | MIC [µg/mL]
CC1(C)[C@H](NC(=O)/C(=N\OC2(C(=O)O)CCCC2)c2csc(N)n2)C(=O)N1OS(=O)(=O)O [Compound A-3] | 0.5 (≈ 1.02 µM)

These compounds were tested on Klebsiella Pneumoniae in the same assay as above. Conditions: Klebsiella pneumoniae, ATCC700603, Klebsiella Pneumoniae ATCC 700603, ESBLs(+); read-out: Minimal Inhibitory Concentration (MIC).
Format: cell-based
Protocol: as §1, §2

SMILES | MIC [µg/mL]
CC1(C)[C@H](NC(=O)/C(=N\OC2(C(=O)O)CCCC2)c2csc(N)n2)C(=O)N1OS(=O)(=O)O [Compound A-3] | 1 (≈ 2.03 µM)

Same assay, conditions: Klebsiella pneumoniae, ATCCBAA2146, Klebsiella Pneumoniae ATCC BAA-2146, NDM-1(+); read-out: Minimal Inhibitory Concentration (MIC)

SMILES | MIC [µg/mL]
CC1(C)[C@H](NC(=O)/C(=N\OC2(C(=O)O)CCCC2)c2csc(N)n2)C(=O)N1OS(=O)(=O)O [Compound A-3] | 0.5 (≈ 1.02 µM)

Same assay, conditions: Klebsiella pneumoniae, Klebsiella Pneumoniae 09-20, mcr-1(+); read-out: Minimal Inhibitory Concentration (MIC)

SMILES | MIC [µg/mL]
CC1(C)[C@H](NC(=O)/C(=N\OC2(C(=O)O)CCCC2)c2csc(N)n2)C(=O)N1OS(=O)(=O)O [Compound A-3] | 0.25 (≈ 0.509 µM)

Same assay, conditions: Klebsiella pneumoniae, Klebsiella Pneumoniae 16-2, ESBLs(−); read-out: Minimal Inhibitory Concentration (MIC)

SMILES | MIC [µg/mL]
CC1(C)[C@H](NC(=O)/C(=N\OC2(C(=O)O)CCCC2)c2csc(N)n2)C(=O)N1OS(=O)(=O)O [Compound A-3] | 2 (≈ 4.07 µM)

Same assay, conditions: Klebsiella pneumoniae, Klebsiella Pneumoniae 16-14, ESBLs(+); read-out: Minimal Inhibitory Concentration (MIC)

SMILES | MIC [µg/mL]
CC1(C)[C@H](NC(=O)/C(=N\OC2(C(=O)O)CCCC2)c2csc(N)n2)C(=O)N1OS(=O)(=O)O [Compound A-3] | 0.5 (≈ 1.02 µM)

Same assay, conditions: Klebsiella pneumoniae, Klebsiella Pneumoniae 17-R27, CRE; read-out: Minimal Inhibitory Concentration (MIC)

SMILES | MIC [µg/mL]
CC1(C)[C@H](NC(=O)/C(=N\OC2(C(=O)O)CCCC2)c2csc(N)n2)C(=O)N1OS(=O)(=O)O [Compound A-3] | 0.25 (≈ 0.509 µM)

What follows are compounds tested on Proteus mirabilis in the same assay as above. Conditions: Proteus mirabilis, ATCC49565, Proteus mirabilis ATCC 49565; read-out: Minimal Inhibitory Concentration (MIC).
Format: cell-based
Protocol: as §1, §2

SMILES | MIC [µg/mL]
CC1(C)[C@H](NC(=O)/C(=N\OC2(C(=O)O)CCCC2)c2csc(N)n2)C(=O)N1OS(=O)(=O)O [Compound A-3] | 0.06 (≈ 0.122 µM)

These compounds were tested on Proteus vulgaris in the same assay as above. Conditions: Proteus vulgaris, ATCC29905, Proteus vulgaris ATCC 29905; read-out: Minimal Inhibitory Concentration (MIC).
Format: cell-based
Protocol: as §1, §2

SMILES | MIC [µg/mL]
CC1(C)[C@H](NC(=O)/C(=N\OC2(C(=O)O)CCCC2)c2csc(N)n2)C(=O)N1OS(=O)(=O)O [Compound A-3] | ≤ 0.03

Each compound was assayed on Providencia rettgeri in the same assay as above. Conditions: Providencia rettgeri, ATCC31052, Providencia rettgeri ATCC 31052; read-out: Minimal Inhibitory Concentration (MIC).
Format: cell-based
Protocol: as §1, §2

SMILES | MIC [µg/mL]
CC1(C)[C@H](NC(=O)/C(=N\OC2(C(=O)O)CCCC2)c2csc(N)n2)C(=O)N1OS(=O)(=O)O [Compound A-3] | ≤ 0.03

These compounds were tested on Pseudomonas aeruginosa in the same assay as above. Conditions: ATCC27853; Pseudomonas aeruginosa ATCC 27853; read-out: Minimal Inhibitory Concentration (MIC).
Format: cell-based
Protocol: as §1, §2

SMILES | MIC [µg/mL]
CC1(C)[C@H](NC(=O)/C(=N\OC2(C(=O)O)CCCC2)c2csc(N)n2)C(=O)N1OS(=O)(=O)O [Compound A-3] | 4 (≈ 8.14 µM)

Same assay, conditions: Pseudomonas aeruginosa 16-11; read-out: Minimal Inhibitory Concentration (MIC)

SMILES | MIC [µg/mL]
CC1(C)[C@H](NC(=O)/C(=N\OC2(C(=O)O)CCCC2)c2csc(N)n2)C(=O)N1OS(=O)(=O)O [Compound A-3] | 4 (≈ 8.14 µM)

Same assay, conditions: Pseudomonas aeruginosa PAO1; read-out: Minimal Inhibitory Concentration (MIC)

SMILES | MIC [µg/mL]
CC1(C)[C@H](NC(=O)/C(=N\OC2(C(=O)O)CCCC2)c2csc(N)n2)C(=O)N1OS(=O)(=O)O [Compound A-3] | 2 (≈ 4.07 µM)

The compounds below were run on Salmonella typhi in the same assay as above. Conditions: Salmonella enterica, TYPHI, read-out: Minimal Inhibitory Concentration (MIC).
Format: cell-based
Protocol: as §1, §2

SMILES | MIC [µg/mL]
CC1(C)[C@H](NC(=O)/C(=N\OC2(C(=O)O)CCCC2)c2csc(N)n2)C(=O)N1OS(=O)(=O)O [Compound A-3] | 0.5 (≈ 1.02 µM)

Each compound was assayed on Serratia marcescens in the same assay as above. Conditions: ATCC21074; Serratia marcescens ATCC 21074; read-out: Minimal Inhibitory Concentration (MIC).
Format: cell-based
Protocol: as §1, §2

SMILES | MIC [µg/mL]
CC1(C)[C@H](NC(=O)/C(=N\OC2(C(=O)O)CCCC2)c2csc(N)n2)C(=O)N1OS(=O)(=O)O [Compound A-3] | 0.5 (≈ 1.02 µM)

These compounds were tested on Shigella flexneri in the same assay as above. Conditions: ATCC12022; Shigella flexneri ATCC 12022; read-out: Minimal Inhibitory Concentration (MIC).
Format: cell-based
Protocol: as §1, §2

SMILES | MIC [µg/mL]
CC1(C)[C@H](NC(=O)/C(=N\OC2(C(=O)O)CCCC2)c2csc(N)n2)C(=O)N1OS(=O)(=O)O [Compound A-3] | 0.25 (≈ 0.509 µM)

What follows are compounds tested on Stenotrophomonas maltophilia in the same assay as above. Conditions: ATCC13636; Stenotrophomonas maltophilia ATCC 13636; read-out: Minimal Inhibitory Concentration (MIC).
Format: cell-based
Protocol: as §1, §2

SMILES | MIC [µg/mL]
CC1(C)[C@H](NC(=O)/C(=N\OC2(C(=O)O)CCCC2)c2csc(N)n2)C(=O)N1OS(=O)(=O)O [Compound A-3] | 4 (≈ 8.14 µM)
